# Measurements published in US4970210A, “Triazinone lipoxygenase compounds” (Abbott Laboratories, priority 1988, dated 1990).
# Tests used:
# [1] = molecular target: T1, 5-lipoxygenase (Rattus norvegicus, UniProt P12527); assay: Inhibition of 5-lipoxygenase (20,000×g supernatant from homogenized RBL-1 cells); format: biochemical; conditions: in vitro, read-out: IC50 (concentration of compound producing 50% enzyme inhibition)
# T1 construct: 20,000×g supernatant from homogenized RBL-1 cells; endogenous in cells; host or cells: RBL-1 cells (20,000×g supernatant of homogenate)
# T1 sequence (P12527 1-673): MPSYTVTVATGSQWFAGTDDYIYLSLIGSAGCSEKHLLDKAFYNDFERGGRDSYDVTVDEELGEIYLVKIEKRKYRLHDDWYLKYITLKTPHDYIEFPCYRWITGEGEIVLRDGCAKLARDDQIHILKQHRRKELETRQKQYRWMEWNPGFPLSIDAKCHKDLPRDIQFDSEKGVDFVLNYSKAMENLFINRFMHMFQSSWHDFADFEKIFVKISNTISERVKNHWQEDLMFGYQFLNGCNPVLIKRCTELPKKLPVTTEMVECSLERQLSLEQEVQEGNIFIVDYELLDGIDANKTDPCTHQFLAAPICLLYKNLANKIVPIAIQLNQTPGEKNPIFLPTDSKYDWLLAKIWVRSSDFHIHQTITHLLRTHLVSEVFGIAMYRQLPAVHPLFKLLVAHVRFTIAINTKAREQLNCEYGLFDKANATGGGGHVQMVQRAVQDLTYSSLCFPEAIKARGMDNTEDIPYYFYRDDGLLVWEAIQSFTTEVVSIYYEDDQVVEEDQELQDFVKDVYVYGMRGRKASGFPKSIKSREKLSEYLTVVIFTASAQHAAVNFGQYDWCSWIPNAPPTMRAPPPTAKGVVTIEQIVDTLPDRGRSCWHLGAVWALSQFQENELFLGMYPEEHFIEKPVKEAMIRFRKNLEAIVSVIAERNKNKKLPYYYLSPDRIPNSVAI
# Description: Inhibition of 5-lipoxygenase activity was determined using the 20,000×g supernatant from homogenized RBL-1 cells in a similiar manner as that described by Dyer and coworkers (Dyer, R. D.; Haviv., F.; Hanel, A. M.; Bornemeier, D. A.; Carter, G. W. Fed. Proc.,Fed.Am.Soc. Exp. Biol. 1984, 43,1462a). IC50 values (concentration of compound producing 50% enzyme inhibition) were calculated by linear regression analysis of percentage inhibition versus log inhibitor concentration plots.
# [2] = test system: leukotriene biosynthesis; assay: In vivo inhibition of leukotriene biosynthesis after oral administration, rat peritoneal anaphylaxis model; conditions: 0.25 h, 200 micro mol/kg oral dose, one hour prior to antigen challenge, peritoneal fluid 15 minutes after challenge, vs mean of control group
# Description: Inhibition of the biosynthesis of leukotrienes in vivo after oral administration of compound was determined using a rat peritoneal anaphylaxis model in a similiar manner as that described by Young and coworkers (Young, P. R.; Dyer, R. D.; Carter, G. W. Fed. Proc., Fed. Am Soc.Exp. Biol. 1985, 44 1185). In this model rats were injected intraperitoneally (ip) with rabbit antibody to bovine serum albumin (BSA) and three hours later injected ip with BSA to induce an antigen-antibody response. Rats were sacrificed 15 minutes after this challenge and the peritoneal fluids were collected and analyzed for leukotriene levels. Test compounds were administered by gauge one hour prior to the antigen challenge. Percent inhibition values were determined by comparing the treatment group to the mean of the control group.
SMILES,IC50 [1] [µM],inhibition in vivo at 200 µmol/kg [2] [%]
"CCCCC1CC(=O)NN(c2ccccc2)C1 (stereo not drawn) [Example 40, 1-phenyl-5-butyl-2H-tetrahydropyridazin-3-one]",0.5,
"O=C1CCCN(c2ccccc2)N1COCc1ccccc1 [Example 113, 1-phenyl-2-benzyloxymethyl-2 H-tetrahydropyridazin-3-one]",71,
"CCCCC1CCN(c2ccccc2)NC1=O (stereo not drawn) [Example 38, 1-phenyl-4-butyl-2H-tetrahydropyridazin-3-one]",0.6,
"O=C1CCCN(c2cccc(C(F)(F)F)c2)N1 [Example 8, 1-(3'-trifluoromethylphenyl)-2H-tetrahydropyridazin-3-one]",5,
"CC(C)C(=O)N1CCN(c2ccccc2)NC1=O [Example 109, 4-Isobutyryl-1-phenyl-2H,4H-tetrahydro-1,2,4-triazin-3-one]",1,
"Cc1cccc(N2CCCC(=S)N2)c1 [Example 106, 1-(3'-methylphenyl)-2H-tetrahydro-pyridazin-3-thione]",1,
"O=C1NCCN(c2cccc(C(F)(F)F)c2)N1 [Example 76, 1-(3'-trifluoromethylphenyl)-2 H,4 H-tetrahydro-1,2,4-triazin-3-one]",17,
"CCc1cccc(N2CCCC(=O)N2)c1 [Example 10, 1-(3'-ethylphenyl)-2H-tetrahydropyridazin-3-one]",3,
"CC1(C)CN(c2ccccc2)NC(=O)N1 [Example 87, 5,5-dimethyl-1-phenyl-2H,4H-tetrahydro-1,2,4-triazin-3-one]",7,
"CSc1cccc(N2CCNC(=O)N2)c1 [Example 75, 1-(3'-methylthiophenyl)-2 H,4 H-tetrahydro-1,2,4-triazin-3-one]",14,73
"Cc1cc(C)cc(N2CCCC(=O)N2)c1 [Example 24, 1-(3',5'-dimethylphenyl)-2H-tetrahydropyridazin-3-one]",3,
"O=C1CCCN(c2cc(Cl)cc(Cl)c2)N1 [Example 26, 1-(3',5'-dichlorophenyl)-2H-tetrahydropyridazin-3-one]",1,
"O=C1NN(c2ccccc2)CCN1Cc1ccccc1 [Example 99, 4-Benzyl-1-phenyl-2H,4H-tetrahydro-1,2,4-triazin-3-one]",8,
"O=C1NCCN(c2cccc(OCc3ccccc3)c2)N1 [Example 79, 1-(3'-benzyloxyphenyl)-2 H,4 H-tetrahydro-1,2,4-triazin-3-one]",1,
"CC(=O)N1CCN(c2cccc(Cl)c2)NC1=O [Example 111, 4-Acetyl-1-(3-chlorophenyl)-2H,4H-tetrahydro-1,2,4-triazin-3-one]",1,74
"CCCCC1CN(c2ccccc2)NC(=O)N1 (racemic) [Example 83, D,L-5-n-butyl-1-phenyl-2H 4H-tetrahydro-1,2,4-triazin-3-one]",2,
"Cc1cc(C)cc(N2CCNC(=O)N2)c1 [Example 80, 1-(3',5'-dimethylphenyl)-2 H,4 H-tetrahydro-1,2,4-triazin-3-one]",12,
"N#Cc1cccc(N2CCCC(=O)N2)c1 [Example 1, 1-(3'-cyanophenyl)-2H-tetrahydropyridazin-3-one]",11,
"CC(C)C1CN(c2ccccc2)NC(=O)N1 (racemic) [Example 82, D,L-5-i-propyl-1-phenyl-2H,4H-tetrahydro-1,2,4-triazin-3-one]",7,

SMILES,IC50 [1] [µM],inhibition in vivo at 200 µmol/kg [2] [%]
"O=C1CCCN(c2ccc(Oc3ccccc3)cc2)N1 [Example 6, 1-(4'-phenoxyphenyl)-2H-tetrahydropyridazin-3-one]",2,
"Cc1cccc(N2CCNC(=O)N2)c1 [Example 70, 1-(3'-methylphenyl)-2 H,4 H-tetrahydro-1,2,4-triazin-3-one]",15,66
"CC1CN(c2ccccc2)NC(=O)N1 (racemic) [Example 81, D,L-5-methyl-1-phenyl-2H,4H-tetrahydro-1,2,4-triazin-3-one]",,84
"O=C1CCCN(c2ccccc2F)N1 [Example 51, 1-(2'-fluorophenyl)-2H-tetrahydropyridazin-3-one]",10,
"S=C1NCCN(c2ccccc2)N1 [Example 102, 1-Phenyl-2H,4H-tetrahydro-1,2,4-triazin-3-thione]",17,
"S=C1NCCN(c2cccc(Cl)c2)N1 [Example 103, 1-(3-Chlorophenyl)-2H,4H-tetrahydro-1,2,4-triazin-3-thione]",5,
"COc1cccc(N2CCCC(=O)N2)c1 [Example 3, 1-(3'-methoxyphenyl)-2H-tetrahydropyridazin-3-one]",6,
"O=C1CCCN(c2cccc(Cl)c2)N1 [Example 46, 1-(3'-chlorophenyl)-2H-tetrahydropyridazin-3-one]",2.5,
"CC1CN(c2cccc(Cl)c2)NC(=O)N1 (racemic) [Example 85, D,L-5-methyl-1-(3-chlorophenyl)-2H,4H-tetrahydro-1,2,4-triazin-3-one]",3,
"O=C1NCCN(c2ccccc2)N1 [Example 68, 1-(phenyl)-2 H,4 H-tetrahydro-1,2,4-triazin-3-one]",21,85
"CCCCCCCCc1ccc(N2CCCC(=O)N2)cc1 [Example 15, 1-(4'-octylphenyl)-2H-tetrahydropyridazin-3-one]",6,
"O=C1NCCN(c2cccc(Cl)c2)N1 [Example 78, 1-(3'-chlorophenyl)-2 H,4 H, tetrahydro-1,2,4-triazin-3-one]",6,80
"CCOC(=O)c1cccc(N2CCCC(=O)N2)c1 [Example 16, 1-(3'-ethoxycarbonylphenyl)-2H-tetrahydropyridazin-3-one]",5,
"CCc1cccc(N2CCNC(=O)N2)c1 [Example 74, 1-(3'-ethylphenyl)-2 H,4 H-tetrahydro-1,2,4-triazin-3-one]",13,58
"CCC1CN(c2ccccc2)NC(=O)N1 (racemic) [Example 86, D,L-5-ethyl-1-phenyl-2H,4H-tetrahydro-1,2,4-triazin-3-one]",7,
"O=C1NCCN(c2cccc(F)c2)N1 [Example 88, 1-(3-fluorophenyl)-2H,4H-tetrahydro-1,2,4-triazin-3-one]",19,
"O=C1NCCN(c2ccccn2)N1 [Example 90, 1-(2-pyridyl)-2H,4H-tetrahydro-1,2,4-triazin-3-one]",26,
"CC(=O)N1CCN(c2ccccc2)NC1=O [Example 107, 4-Acetyl-1-phenyl-2H,4H-tetrahydro-1,2,4-triazin-3-one]",3,
"O=C1NCCN(c2cccc(Br)c2)N1 [Example 73, 1-(3'-bromophenyl)-2 H,4 H-tetrahydro-1,2,4-triazin-3-one]",5,46
